For 25 molecules, response vs control in vivo and LD50 results are on record in patent publication US4760136A, “Chartreusin derivatives and salts thereof” (Ishihara Sangyo Kaisha, Ltd., priority 1984, dated 1988).

The subject of data set [1] is P-388 leukemia cells. Description: Antitumor activity: P-388 leukemia cells inoculated intraperitoneally, drug administered intravenously, BDF1 mice. It counts as in vivo. To be noted: Mus musculus, P388, iv, BDF1 mice, P-388 i.p., read-out: T/C (%) of MST; for response vs control in vivo at 20 mg/kg: dose b: 20 mg/kg × 3, i.v. on days 1, 5 and 9; for response vs control in vivo at 40 mg/kg: dose c: 40 mg/kg × 3, i.v. on days 1, 5 and 9; for response vs control in vivo at 80 mg/kg: dose f: 80 mg/kg × 3, i.v. on days 1, 5 and 9. The method, then:
Into BDF1 mice were inoculated intraperitoneally P-388 leukemia cells at a rate of 1×10^6 cells/mouse, and each drug to be tested was administered intravenously on the first, fifth and ninth days after the inoculation. […] The drugs were as follows solutions prepared by adding physiological saline to each of compound Nos. 8, 9, 10, 11, 17, 34, 42, 59, 80 and 134; suspensions prepared by dispersing each of compound Nos. 41, 78, 98, 100, 130, 191, 212, 213, 215, 227 and 230 to 232 and a small amount of sodium carboxymethyl cellulose (Na.CMC) in physiological saline, […]

Data set [2] can be described thus: Acute toxicity, intravenous (once), ddY mice. To be noted: mouse, in vivo, iv, formulated per Preparation Example. It counts as in vivo. From the text:
In Table 7 are shown acute toxicity values (LD50, mg/kg) in ddY mice in the case of intravenously administering (once) each of the compounds of this invention in the form of preparations shown in the Preparation Examples shown in Table 7.

In the case of `COC1C(O)C(C)OC(OC2C(Oc3cccc4c(OC(=O)CCNC(=O)C(Cl)(Cl)Cl)c5c(=O)oc6ccc(C)c7c(=O)oc(c34)c5c67)OC(C)C3OC(c4ccccc4)OC32)C1O` (stereo not drawn) [Compound No. 22], the response vs control in vivo at 20 mg/kg in data set [1] was 181%. In data set [2], this molecule displayed an LD50 not below 40 mg/kg.
In the case of `COC1C(O)C(C)OC(OC2C(Oc3cccc4c(OC(=O)CCNC(=O)c5ccccc5)c5c(=O)oc6ccc(C)c7c(=O)oc(c34)c5c67)OC(C)C3OC(c4ccccc4)OC32)C1O` (stereo not drawn) [Compound No. 23], in data set [1], the response vs control in vivo at 20 mg/kg amounted to 205% and the response vs control in vivo at 40 mg/kg was found to be 233%. For the same molecule, the median lethal dose (LD50) in data set [2] is not below 40 mg/kg.
For `COC1C(O)C(C)OC(OC2C(Oc3cccc4c(OC(=O)CCCNC(=O)C(F)(F)F)c5c(=O)oc6ccc(C)c7c(=O)oc(c34)c5c67)OC(C)C3OC(c4ccccc4)OC32)C1O` (stereo not drawn) [Compound No. 24], in data set [1], the response vs control in vivo at 20 mg/kg came out at 161% and the response vs control in vivo at 40 mg/kg amounted to 223%. In data set [2], this molecule showed an LD50 not below 40 mg/kg.
Regarding `COC1C(O)C(C)OC(OC2C(Oc3cccc4c(OC(=O)CN(C)C(=O)C(F)(F)F)c5c(=O)oc6ccc(C)c7c(=O)oc(c34)c5c67)OC(C)C3OC(c4ccccc4)OC32)C1O` (stereo not drawn) [Compound No. 25], the response vs control in vivo at 20 mg/kg in data set [1] was found to be 212%. The molecule further displayed an LD50 in data set [2] not below 40 mg/kg.
`COC1C(O)C(C)OC(OC2C(Oc3cccc4c(OC(=O)C(C)CNC(=O)C(F)(F)F)c5c(=O)oc6ccc(C)c7c(=O)oc(c34)c5c67)OC(C)C3OC(c4cccc(C(F)(F)F)c4)OC32)C1O` (stereo not drawn) [Compound No. 30]: in data set [1], the response vs control in vivo at 40 mg/kg was determined as 171% and the response vs control in vivo at 80 mg/kg amounted to 257%. The molecule further displayed an LD50 in data set [2] not below 80 mg/kg.
`COC1C(O)C(C)OC(OC2C(Oc3cccc4c(OC(=O)CCNC(=O)C(F)(F)F)c5c(=O)oc6ccc(C)c7c(=O)oc(c34)c5c67)OC(C)C3OC(c4cccc(Br)c4)OC32)C1O` (stereo not drawn) [Compound No. 31]: in data set [1], the response vs control in vivo at 40 mg/kg came out at 171% and the response vs control in vivo at 80 mg/kg stood at 238%. This molecule also showed a median lethal dose (LD50) in data set [2] not below 80 mg/kg.
Regarding `COC1C(O)C(C)OC(OC2C(Oc3cccc4c(OC(=O)CCN5CCCC5)c5c(=O)oc6ccc(C)c7c(=O)oc(c34)c5c67)OC(C)C3OC(c4cccc(F)c4)OC32)C1O` (stereo not drawn) [Compound No. 34, 6-O-(β-1-pyrrolidinyl-propionyl)-3',4'-O-(m-fluorobenzylidene)-chartreusin phosphate], the response vs control in vivo at 40 mg/kg in data set [1] turned out to be 140%. In data set [2], this molecule had a median lethal dose (LD50) not below 30 mg/kg.
Take `COC1C(O)C(C)OC(OC2C(Oc3cccc4c(OC(=O)CCNC(C)=O)c5c(=O)oc6ccc(C)c7c(=O)oc(c34)c5c67)OC(C)C3OC(c4ccccc4)OC32)C1O` (stereo not drawn) [Compound No. 38]: in data set [1], the response vs control in vivo at 20 mg/kg is 203%. The molecule also gave a median lethal dose (LD50) in data set [2] not below 40 mg/kg.
On to `COC1C(O)C(C)OC(OC2C(Oc3cccc4c(OC(=O)CC(C)NC(=O)C(F)(F)F)c5c(=O)oc6ccc(C)c7c(=O)oc(c34)c5c67)OC(C)C3OC(c4ccccc4)OC32)C1O` (stereo not drawn) [Compound No. 39], for which, in data set [1], the response vs control in vivo at 20 mg/kg amounted to 165% and the response vs control in vivo at 40 mg/kg was 214%. The 50% lethal dose (LD50) in data set [2] is not below 40 mg/kg.
For the molecule `COC1C(O)C(C)OC(OC2C(Oc3cccc4c(OC(=O)CCCCNC(=O)C(F)(F)F)c5c(=O)oc6ccc(C)c7c(=O)oc(c34)c5c67)OC(C)C3OC(c4ccccc4)OC32)C1O` (stereo not drawn) [Compound No. 43], the response vs control in vivo at 20 mg/kg in data set [1] was found to be 226%. In data set [2], this molecule displayed an LD50 not below 40 mg/kg.
With `COC1C(O)C(C)OC(OC2C(Oc3cccc4c(OC(=O)CCNC=O)c5c(=O)oc6ccc(C)c7c(=O)oc(c34)c5c67)OC(C)C3OC(c4cccc(F)c4)OC32)C1O` (stereo not drawn) [Compound No. 46], in data set [1], the response vs control in vivo at 40 mg/kg amounted to 157% and the response vs control in vivo at 80 mg/kg was 210%. Moreover, the 50% lethal dose (LD50) in data set [2] was not below 80 mg/kg.
For `COC1C(O)C(C)OC(OC2C(Oc3cccc4c(OC(=O)CCNC(=O)c5ccccc5)c5c(=O)oc6ccc(C)c7c(=O)oc(c34)c5c67)OC(C)C3OC(c4cccc(F)c4)OC32)C1O` (stereo not drawn) [Compound No. 47, 6-O-(N-benzoyl-β-alanyl)-3',4'-O-(m-fluorobenzylidene)-chartreusin], in that order: 150%, 210% and not below 80 mg/kg.
For `COC1C(O)C(C)OC(OC2C(Oc3cccc4c(OC(=O)CCNC=O)c5c(=O)oc6ccc(C)c7c(=O)oc(c34)c5c67)OC(C)C3OC(C)(C)OC32)C1O` (stereo not drawn) [Compound No. 48, 6-O-(N-formyl-β-alanyl)-3',4'-O-isopropylidene-chartreusin], the response vs control in vivo at 80 mg/kg in data set [1] came to 172%. For the same molecule, the 50% lethal dose (LD50) in data set [2] was not below 120 mg/kg.
For `COC1C(O)C(C)OC(OC2C(Oc3cccc4c(OC(=O)CCNC(=O)C(F)(F)F)c5c(=O)oc6ccc(C)c7c(=O)oc(c34)c5c67)OC(C)C3OC(C)(C)OC32)C1O` (stereo not drawn) [Compound No. 49, 6-O-(N-Trifluoroacetyl-β-Alanyl)-3',4'-O-Isopropylidene-Chartreusin], the response vs control in vivo at 80 mg/kg in data set [1] stood at 207%. Further, the LD50 in data set [2] is not below 150 mg/kg.
On to `COC1C(O)C(C)OC(OC2C(Oc3cccc4c(OC(=O)CCNC(=O)c5ccccc5)c5c(=O)oc6ccc(C)c7c(=O)oc(c34)c5c67)OC(C)C3OC(C)(C)OC32)C1O` (stereo not drawn) [Compound No. 50], for which the response vs control in vivo at 60 mg/kg in data set [1] (dose e: 60 mg/kg × 3, i.v. on days 1, 5 and 9) was 155%. Moreover, the LD50 in data set [2] was not below 100 mg/kg.
`COC1C(O)C(C)OC(OC2C(Oc3cccc4c(OC(=O)CC(C)NC(=O)C(F)(F)F)c5c(=O)oc6ccc(C)c7c(=O)oc(c34)c5c67)OC(C)C3OC(C)(C)OC32)C1O` (stereo not drawn) [Compound No. 51]: in data set [1], the response vs control in vivo at 40 mg/kg was determined as 136% and the response vs control in vivo at 80 mg/kg was determined as 207%. Besides, the LD50 in data set [2] was not below 100 mg/kg.
For `COC1C(O)C(C)OC(OC2C(Oc3cccc4c(OC(=O)CCNC=O)c5c(=O)oc6ccc(C)c7c(=O)oc(c34)c5c67)OC(C)C3OC(c4cccc(C(F)(F)F)c4)OC32)C1O` (stereo not drawn) [Compound No. 52], in that order: 162%, 203% and not below 80 mg/kg.
For `COC1C(O)C(C)OC(OC2C(Oc3cccc4c(OC(=O)CCNC(C)=O)c5c(=O)oc6ccc(C)c7c(=O)oc(c34)c5c67)OC(C)C3OC(c4cccc(C(F)(F)F)c4)OC32)C1O` (stereo not drawn) [Compound No. 53], in that order: 165%, 239% and not below 80 mg/kg.
For `COC1C(O)C(C)OC(OC2C(Oc3cccc4c(OC(=O)CCNC=O)c5c(=O)oc6ccc(C)c7c(=O)oc(c34)c5c67)OC(C)C3OC(c4cccc(Br)c4)OC32)C1O` (stereo not drawn) [Compound No. 54] the same measures were 144%, 208% and not below 80 mg/kg.
`COC1C(O)C(C)OC(OC2C(Oc3cccc4c(OC(=O)CCNC=O)c5c(=O)oc6ccc(C)c7c(=O)oc(c34)c5c67)OC(C)C3OC(c4ccccc4C)OC32)C1O` (stereo not drawn) [Compound No. 55]: the response vs control in vivo at 40 mg/kg in data set [1] was 162%. In addition, in data set [2], the median lethal dose (LD50) was not below 40 mg/kg.
For `COC1C(O)C(C)OC(OC2C(Oc3cccc4c(OC(=O)CCNC(=O)C(Cl)(Cl)Cl)c5c(=O)oc6ccc(C)c7c(=O)oc(c34)c5c67)OC(C)C3OC(c4cccc(Br)c4)OC32)C1O` (stereo not drawn) [Compound No. 56], in data set [1], the response vs control in vivo at 40 mg/kg worked out at 165% and the response vs control in vivo at 80 mg/kg worked out at 219%. Further, the LD50 in data set [2] was not below 80 mg/kg.
As for `COC1C(O)C(C)OC(OC2C(Oc3cccc4c(OC(=O)CCNC=O)c5c(=O)oc6ccc(C)c7c(=O)oc(c34)c5c67)OC(C)C3OC(c4ccccc4Cl)OC32)C1O` (stereo not drawn) [Compound No. 58], in data set [1], the response vs control in vivo at 40 mg/kg came to 162% and the response vs control in vivo at 80 mg/kg amounted to 216%. In data set [2], this molecule registered an LD50 not below 80 mg/kg.
For the molecule `COC1C(O)C(C)OC(OC2C(Oc3cccc4c(OC(=O)C(C)CNC(=O)OCc5ccccc5)c5c(=O)oc6ccc(C)c7c(=O)oc(c34)c5c67)OC(C)C3OC(c4cccc(F)c4)OC32)C1O` (stereo not drawn) [Compound No. 60], in data set [1], the response vs control in vivo at 20 mg/kg was found to be 176% and the response vs control in vivo at 40 mg/kg is 210%. The molecule also registered an LD50 in data set [2] not below 40 mg/kg.
For `COC1C(O)C(C)OC(OC2C(Oc3cccc4c(OC(=O)CCNC(=O)CNC(=O)OCc5ccccc5)c5c(=O)oc6ccc(C)c7c(=O)oc(c34)c5c67)OC(C)C3OC(c4cccc(F)c4)OC32)C1O` (stereo not drawn) [Compound No. 61] the same measures were 176%, 220% and not below 40 mg/kg.
For `COC1C(O)C(C)OC(OC2C(Oc3cccc4c(OC(=O)C5CCCCC5NC(=O)OCc5ccccc5)c5c(=O)oc6ccc(C)c7c(=O)oc(c34)c5c67)OC(C)C3OC(c4ccccc4)OC32)C1O` (stereo not drawn) [Compound No. 62], in that order: 155%, 210% and not below 40 mg/kg.
